Earlier results as cited in patent US20200221707A1, “Sanitizing Compositions and Methods for Making and Using Same” (priority 2017, published 2020).

How the values were obtained:
[1] = system: Gram-negative bacteria and fungi
most bacteria = conditions: in <30 seconds

SMILES	amount effective against Gram-negative bacteria and fungi [1]	amount active against Gram-positive bacteria (Gram-positive bacteria)	bacteria destroyed (most bacteria) [%]
[H]/N=C(\N/C(=N/[H])NCCCCCCNC(=N)NC(=N)Nc1ccc(Cl)cc1)Nc1ccc(Cl)cc1 [Chlorhexidine]	10-80 ppm	at least 1 ppm	–
CC(C)O [Isopropyl alcohol]	–	–	> 99.99
